Active and inactive are the calls of the source.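 How the source made its calls: active means growth-inhibition EC50 no more than tenfold above the top tested dose; inconclusive means flat fit between 30% and 70% inhibition, or unreliable fit; inactive means EC50 more than tenfold above the top tested dose.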
The molecules below were run on E. coli NEB5alpha growth, BacTiter-Glo luminescence, 4 h (assay: Escherichia coli growth inhibition, dose response, counter-screen for MEX-5/POS-1 RNA-binding inhibitor project, luminescence, NEB5alpha (AID 1959);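 further: pUC19-transformed ampicillin-resistant cells grown in LB with ampicillin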).
With `Fc1ccc(CNc2nc(-c3ccccc3)nc3ccccc23)cc1` the EC50 was > 11 µM (inactive).
With `O=C(O)CCc1ccc(-c2ccccc2)n1-c1ccc(C(=O)O)cc1` the EC50 was > 11 µM (inactive).
For `COc1cccc(C(=O)NCC2CCN(c3ccc(S(=O)(=O)N4CCOCC4)cc3)CC2)c1`, the EC50 was > 11 µM (inactive).
`NC(=S)N=Nc1ccc(NN=C(N)N)cc1` was tested, and the EC50 was > 11 µM (inactive).
With `COC(=O)[C@@]1(C#N)[C@@H]2C=CC(C(C)=O)=CN2[C@@H](C(N)=O)[C@@H]1c1ccc(F)cc1` the EC50 was > 11 µM (inactive).
With `Cc1nc(N2CCN(Cc3ccccc3)CC2)c(C#N)c2c1COC(C)(C)C2` the EC50 was > 11 µM (inactive).
In the case of `Cn1ncc2c(NNC(=O)Cc3ccccc3)ncnc21`, the EC50 was > 11 µM (inactive).
For `COc1ccc(OC)c(N2C(=O)/C(=C/c3ccco3)C(=O)NC2=S)c1`, the EC50 was > 11 µM (inactive).
In the case of `NC(=O)Cn1cc(C=C2C(=O)NC(=O)NC2=O)c2ccccc21`, the EC50 was > 11 µM (inactive).
With `COc1ccc(C2C(C#N)=C(N)OC3=C2C(=O)CC(C)(C)C3)c(OC)c1OC` (centres undefined) the EC50 was > 11 µM (inactive).
In the case of `CCC(C)n1c(=N)c(C#N)cc2c(=O)n3cc(C)ccc3nc21` (centres undefined), the EC50 was > 11 µM (inactive).
In the case of `O=S(=O)(c1cccc(-c2csc(-c3cccnc3)n2)c1)N1CCOCC1`, the EC50 was > 11 µM (inactive).
For `CCN(CC)C(=O)c1cc2c(=O)c3cc(Cl)ccc3oc2nc1C`, the EC50 was > 11 µM (inactive).
With `O=C(O)CCNc1ccc(NCCC(=O)O)c2c1C(=O)c1ccccc1C2=O` the EC50 was > 11 µM (inactive).
`COc1ccc(-c2cc3ccc(OCC(N)=O)cc3oc2=O)cc1OC` was tested, and the EC50 was > 11 µM (inactive).
In the case of `CC1N(C)c2cccc3cccc(c23)N1C`, the EC50 was > 11 µM (inactive).
`O=C1c2cc(F)ccc2-n2c1nc1ccccc1c2=O` was tested, and the EC50 was > 11 µM (inactive).
`COc1cc2c(cc1/C=C1/NC(=O)N(c3ccccc3)C1=O)OCO2` was tested, and the EC50 was > 11 µM (inactive).
In the case of `O=C(O)c1ccccc1NS(=O)(=O)c1ccc(NNC(=S)Nc2ccc(OC(F)F)cc2)c([N+](=O)[O-])c1`, the EC50 was > 11 µM (inactive).
With `O=C(CCN1C(=O)/C(=C\C=C\c2ccccc2)SC1=S)Nc1ccc(C(=O)O)cc1` the EC50 was > 11 µM (inactive).
With `O=C(N[C@H]1CP(=O)(Oc2ccccc2)O[C@H](COCc2ccccc2)[C@H]1O)C(Cl)(Cl)Cl` (some centres undefined) the EC50 was > 11 µM (inactive).
With `O=C1N=C(N2CCCCC2)S/C1=C/C1=Cc2ccccc2OC1` the EC50 was > 11 µM (inactive).
With `C=CCNC(=S)N1CCN(c2cccc(C(F)(F)F)c2)CC1` the EC50 was > 11 µM (inactive).
With `CCc1cc(=O)oc2cc(C)cc(OC(C)C(=O)O)c12` (centres undefined) the EC50 was > 11 µM (inactive).
With `CC(C)(C)OC(=O)NCCCC1=CC2=CC(=O)C(C)(OC(=O)c3ccco3)C(=O)C2=CO1` (centres undefined) the EC50 was > 11 µM (inactive).
With `CC1(OC(=O)c2ccco2)C(=O)C=C2C=C(C3CC3)OC=C2C1=O` (centres undefined) the EC50 was > 11 µM (inactive).
In the case of `Cc1cccc(NC(=O)CN2C(=O)N/C(=C\c3cccn3-c3cccc(C(=O)O)c3)C2=O)c1`, the EC50 was > 11 µM (inactive).
With `O=C(N/N=C/c1c(O)n(Cc2ccccc2)c(=O)[nH]c1=O)c1ccncc1` the EC50 was > 11 µM (inactive).
For `COc1ccccc1N1C(=O)C2C(C(=O)c3ccccc3)=NN(c3ccc(C)cc3)C2C1=O` (centres undefined), the EC50 was > 11 µM (inactive).
For `COc1ccc(N=Cc2cc3c(cc2O)OC(N)=C(C#N)C3c2ccccc2)cc1` (centres undefined), the EC50 was > 11 µM (inactive).
For `COc1ccc(/C=C/c2nc3sc4c(c3c(=O)o2)CCC4)cc1`, the EC50 was > 11 µM (inactive).
With `COc1cccc(OCCn2cc(C=O)c3ccccc32)c1` the EC50 was > 11 µM (inactive).
For `O/C=c1\ccc2cccc3nc(C(F)(F)F)nc1c23`, the EC50 was > 11 µM (inactive).
For `O=C(C1=NN(c2ccccc2)C2C(=O)N(c3ccccc3Cl)C(=O)C12)c1ccccc1` (centres undefined), the EC50 was > 11 µM (inactive).
For `Cc1nc(S/C(=C/c2ccc(OCc3ccc(C(=O)O)cc3)cc2)C(=O)O)n[nH]1`, the EC50 was > 11 µM (inactive).
`CC(=O)c1c(C(C)=O)c(C)n(-c2ccc(C(=O)O)cc2)c1C` was tested, and the EC50 was > 11 µM (inactive).
`COc1ccc(C2C(C#N)=C(N)OC3=C2C(=O)CCC3)cc1OC` (centres undefined) was tested, and the EC50 was > 11 µM (inactive).
With `C(=N\NC(=Nc1ccccc1)c1ccccn1)/c1ccccn1` the EC50 was > 11 µM (inactive).
`COc1ccc(/C=C2\CCCc3c2nc2ccccc2c3C(=O)O)cc1OC` was tested, and the EC50 was > 11 µM (inactive).
With `O=C(O)c1ccc(-c2ccc(/C=C3\NC(=O)N(Cc4ccc(Cl)cc4)C3=O)o2)cc1Cl` the EC50 was > 11 µM (inactive).
`CCC(Oc1ccccc1)C(=O)Nc1ccccn1` (centres undefined) was tested, and the EC50 was > 11 µM (inactive).
`N=c1c(C(=O)NC2CCCCC2)cc2c(=O)n3ccccc3nc2n1Cc1ccc(F)cc1` was tested, and the EC50 was > 11 µM (inactive).
For `COc1cccc(C2C(C(=O)c3cc4cccc(OC)c4o3)=C(O)C(=O)N2c2cc(C)on2)c1OC` (centres undefined), the EC50 was > 11 µM (inactive).
`COc1ccc(C(=O)Nc2nnc(CC(=O)N/N=C/c3ccc(O)cc3O)s2)cc1` was tested, and the EC50 was > 11 µM (inactive).
`CCN(CC)c1ccc(N=Nc2ncn[nH]2)cc1` was tested, and the EC50 was > 11 µM (inactive).
With `CN1CCc2cc3c(c4c2[C@H]1[C@H](O)c1ccccc1-4)OCO3` the EC50 was > 11 µM (inactive).
For `Cc1cc(/C=C2\C(=O)NC(=O)N(C)C2=O)c(C)n1-c1ccc2c(c1)OCO2`, the EC50 was > 11 µM (inactive).
For `COc1ccc(C2C(C(=O)c3ccco3)=C(O)C(=O)N2c2nnc(C)s2)cc1` (centres undefined), the EC50 was > 11 µM (inactive).
With `CCOC(=O)N1CCN(CC(=O)c2ccc(O)cc2O)CC1` the EC50 was > 11 µM (inactive).
With `COc1ccc(N=Cc2c(O)ccc3ccccc23)cc1` the EC50 was > 11 µM (inactive).
For `Cn1cc(C=C2C(=O)NC(=O)NC2=O)c2ccccc21`, the EC50 was > 11 µM (inactive).
In the case of `CN(C)c1cc(-c2ccc([N+](=O)[O-])cc2)oc(=O)c1Cl`, the EC50 was > 11 µM (inactive).
In the case of `COC(=O)c1cc(C(=O)OC)cc(-n2c(C)cc(C(=O)COC(=O)CNS(=O)(=O)c3ccc(C)cc3)c2C)c1`, the EC50 was > 11 µM (inactive).
In the case of `Cn1c(=O)[nH]c2cc(Cl)cnc21`, the EC50 was > 11 µM (inactive).
For `Cc1ccc(C2C(C(=O)c3ccco3)=C(O)C(=O)N2c2nnc(C)s2)cc1` (centres undefined), the EC50 was > 11 µM (inactive).
For `CC(=O)c1cc(NC(=O)c2cccc(C(F)(F)F)c2)c(=O)oc1/C=C/N(C)C`, the EC50 was > 11 µM (inactive).
For `C/C(=N\Nc1ccc([N+](=O)[O-])cc1[N+](=O)[O-])c1cc2c(ccc3ccccc32)oc1=O`, the EC50 was > 11 µM (inactive).
In the case of `Cc1cccn2c(=O)c3cc(C(=O)NCC4CCCO4)c(=N)n(CCc4ccccc4)c3nc12` (centres undefined), the EC50 was > 11 µM (inactive).
For `O=c1oc2c3c4c(cc2s1)CCCN4CCC3`, the EC50 was > 11 µM (inactive).
In the case of `COc1cc2c(cc1OC)C(c1ccc(-c3ccc(Cl)cc3Cl)o1)=NCC2`, the EC50 was > 11 µM (inactive).
With `Cc1n[nH]c(=S)c2nn(-c3cccc(Cl)c3)c(C)c12` the EC50 was > 11 µM (inactive).
For `CCOc1ccc2nc3cc(NCc4ccc(OC)cc4)ccc3c(N)c2c1`, the EC50 was > 11 µM (inactive).
`COC(=O)/C=C1\C(=O)N(c2nc3ccccc3s2)C(=S)N1c1ccc(F)cc1` was tested, and the EC50 was > 11 µM (inactive).
For `COc1cccc(N=Nc2c(=O)[nH]n3c(=O)cc(C)[nH]c23)c1`, the EC50 was > 11 µM (inactive).
`CCN(CC)c1ccc2cc(NC(=O)CCC(=O)O)c(=O)oc2c1` was tested, and the EC50 was > 11 µM (inactive).
`C=CCN1C(=O)NC(=O)/C(=C/c2ccc(OCC(=O)Nc3ccc(C)cc3)cc2)C1=O` was tested, and the EC50 was > 11 µM (inactive).
With `Cc1cccc(C)c1NC(=O)CN1C(=O)S/C(=C\c2cccn2-c2cccc(C(=O)O)c2)C1=O` the EC50 was > 11 µM (inactive).
In the case of `C=CCOc1ccc(C2C(C(=O)c3cccs3)=C(O)C(=O)N2c2nnc(C)s2)cc1` (centres undefined), the EC50 was > 11 µM (inactive).
For `Cc1nnc(N2C(=O)C(O)=C(C(=O)c3ccco3)C2c2ccc(F)cc2)s1` (centres undefined), the EC50 was > 11 µM (inactive).
For `CN(C)c1ccnc(Oc2ccc(Cl)cc2)c1C#N`, the EC50 was > 11 µM (inactive).
`CCC(C)n1c(=N)c(C#N)cc2c(=O)n3cccc(C)c3nc21` (centres undefined) was tested, and the EC50 was > 11 µM (inactive).
In the case of `Cc1ccccc1NC(=O)/C(C#N)=C\c1cc(C)n(-c2ccc(C(=O)O)cc2)c1C`, the EC50 was > 11 µM (inactive).
For `Cc1ccc2c(c1)C1C=CCC1C(C(=O)NCCCN1CCOCC1)N2` (centres undefined), the EC50 was > 11 µM (inactive).
In the case of `CC(=O)c1cc(NC(=O)c2ccc(Cl)cc2)c(=O)oc1/C=C/N(C)C`, the EC50 was > 11 µM (inactive).
In the case of `CC1(OC(=O)CCc2ccccc2)C(=O)C=C2C=C(C3CC3)OC=C2C1=O` (centres undefined), the EC50 was > 11 µM (inactive).
In the case of `CN1C(=O)C(=Cc2ccccc2OS(=O)(=O)c2ccccc2)C(=O)N(C)C1=O`, the EC50 was > 11 µM (inactive).
`CCN1C(=O)NC(=O)/C(=C\c2cn(CC(=O)O)c3ccccc23)C1=O` was tested, and the EC50 was > 11 µM (inactive).
`COc1ccccc1/C=C1/SC(=S)N(CCC(=O)Nc2cccnc2)C1=O` was tested, and the EC50 was > 11 µM (inactive).
In the case of `O=C1c2ccccc2C(=O)c2c1cccc2N(CCO)CCO`, the EC50 was > 11 µM (inactive).
In the case of `Oc1ccc(/C=N/Nc2ncnc3nc[nH]c23)cc1`, the EC50 was > 11 µM (inactive).
For `CNC(=O)NC(=O)COC(=O)c1ccc(-n2c(C)ccc2C)cc1`, the EC50 was > 11 µM (inactive).
In the case of `Cc1cccn2c(=O)c3cc(S(=O)(=O)c4ccccc4)c(=N)n(Cc4cccnc4)c3nc12`, the EC50 was > 11 µM (inactive).
With `COc1cc(C2C(C#N)=C(N)OC3=C2C(=O)CCC3)cc(OC)c1OC(=O)N1CCOCC1` (centres undefined) the EC50 was > 11 µM (inactive).
For `O=c1[nH]c(=O)n(Cc2ccccc2Cl)c(O)c1C=Nc1ccc(F)cc1`, the EC50 was > 11 µM (inactive).
In the case of `CC1=NN(c2ccc(C(=O)O)c(N)c2)C(=O)C1`, the EC50 was > 11 µM (inactive).
`NC(=O)[C@@H]1CCCN1Cc1c(C(=O)N2CCc3ccccc3C2)nc2ccc(Cl)cn12` was tested, and the EC50 was > 11 µM (inactive).
`CSc1nncc(/C(C)=N\Nc2ccccc2)n1` was tested, and the EC50 was > 11 µM (inactive).
For `Cc1cc(C=C2C(=O)N(C)C(=S)N(C)C2=O)c(C)n1C1CCCC1`, the EC50 was > 11 µM (inactive).
`CCCN1C(=O)c2cccc3c(N4CCCCC4)ccc(c23)C1=O` was tested, and the EC50 was > 11 µM (inactive).
`CCOC(=O)c1ccc(-n2c(C)ccc2C)cc1` was tested, and the EC50 was > 11 µM (inactive).
`COc1ccc(C(=O)Nc2cc(C(C)=O)c(/C=C/N(C)C)oc2=O)cc1` was tested, and the EC50 was > 11 µM (inactive).
For `CCOC(=O)N1CCN(c2nc3ccccc3nc2C(C#N)S(=O)(=O)c2ccc(C)cc2)CC1` (centres undefined), the EC50 was > 11 µM (inactive).
For `COc1cc(C2C(C#N)=C(N)OC3=C2C(=O)CCC3)ccc1OC(=O)N1CCOCC1` (centres undefined), the EC50 was > 11 µM (inactive).
For `CCOc1ccc(-c2nn(-c3ccccc3)cc2/C=C2\SC(=S)N(C3CCS(=O)(=O)C3)C2=O)cc1` (centres undefined), the EC50 was > 11 µM (inactive).
